Values of other authors as cited in patent US20150157714A1, “IMPLEMENTATION OF NON-PATHOGENIC BIOLUMINESCENT BACTERIA AS A SUB-MICRON LIGHT EMITTING SOURCE FOR PHOTO-DYNAMIC THERAPY IN THE LUNGS” (priority 2013, published 2015).

Test system: multi-drug resistant Pseudomonas aeruginosa (Gram −) isolates
Details: 60 different multi-drug resistant isolates

| Compound | reduction of isolates with PDT |
| --- | --- |
| Cc1cc2nc3ccc(N(C)C)cc3[s+]c2cc1N.[Cl-] [Toluidine Blue] | significantly reduced |

Test system: not given
Details: FIG. 1, representative spectral curve

| Compound | spectral curve runs to wavelength | spectral curve starts at wavelength | spectral peak of emitted light |
| --- | --- | --- | --- |
| Mutated Firefly luciferase S284T: mutated firefly luciferase S284T | about 720 nm | about 520 nm | about 630 nm |
| Wild-type Firefly luciferase (FFluc): Wild-type Firefly luciferase from Photinus pyralis, uses D-luciferin, ATP dependent | about 680 nm | about 460 nm | about 557 nm |

Test system: Multidrug-resistant Pseudomonas aeruginosa
Details: 635 nm light

| Compound | susceptibility to photosensitizer and light |
| --- | --- |
| CN(C)c1ccc2nc3ccc(=[N+](C)C)cc-3sc2c1 [Methylene Blue] | susceptibility |

Test system: not given
Details: absorption spectra wavelengths for photochemical interactions

| Compound | Spectral Absorption Ranges and Peaks |
| --- | --- |
| Aniline Blue | 550-620 nm |
| CCN(Cc1cccc(S(=O)(=O)[O-])c1)c1ccc(C(=C2C=CC(=[N+](CC)Cc3cccc(S(=O)(=O)[O-])c3)C=C2)c2ccc(O)cc2S(=O)(=O)[O-])cc1.[Na+].[Na+] [Fast Green] | 560+ nm |
| Cc1cc2nc3ccc(N(C)C)cc3[s+]c2cc1N.[Cl-] [Toluidine Blue] | 560+ nm |
| BPD-ma | 689 nm |
| O=S(=O)([O-])c1ccc(N=Nc2cc(S(=O)(=O)[O-])c3ccccc3c2O)c2ccccc12.[Na+].[Na+] [Carmoisine azorubine] | 515 nm |
| Brilliant Cresyl Blue | 550+ nm |
| HPPH | 665 nm |
| Nc1c(O)c(S(=O)(=O)[O-])c(O)c2c1C(=O)c1ccccc1C2=O.[Na+] [Nuclear Fast Red] | 460-550 nm |
| NCC(=O)CCC(=O)O [ALA] | 635 nm |
| Acid Fuchsin | 530-560 nm |
| Azure B | 580+ nm |
| O=S(=O)([O-])c1ccc(/N=N/c2cc(S(=O)(=O)[O-])c3ccccc3c2O)c2ccccc12.[Na+].[Na+] [Chromotrope FB] | 512 nm |
| Cc1c(C(=O)O)c(O)cc2c1C(=O)c1c(O)c(C3O[C@H](CO)[C@@H](O)[C@H](O)[C@H]3O)c(O)c(O)c1C2=O (stereo in doubt) [Carmine] | 500-570 nm |
| Nc1c(/N=N/c2ccc(-c3ccc(/N=N/c4cc(S(=O)(=O)O)c5ccccc5c4N)cc3)cc2)cc(S(=O)(=O)O)c2ccccc12 [Congo Red] | 400-560 nm |
| O.O=C([O-])c1ccccc1-c1c2cc(I)c(=O)c(I)c-2oc2c(I)c([O-])c(I)cc12.[Na+].[Na+] [Erythrosin B] | 510-540 nm |
| COc1cc(S(=O)(=O)[O-])c(C)cc1N=Nc1c(O)ccc2cc(S(=O)(=O)[O-])ccc12.[Na+].[Na+] [Allura Red AC] | 504 nm |
| CCOC(=O)C1=Cc2c3nc(cc4nc(cc5[n-]c(cc6[n-]c2c(C)c6CC)c(C)c5CC)C(C)=C4CC)[C@@H](C)[C@]13CC.[Cl-].[Cl-].[Sn] [SnEt2 (Purlytin), SnEt2] | 660 nm |
| Luxol Fast Blue | 500-640 nm |
| Cc1cc2nc3ccc(N(C)C)cc3nc2cc1N.Cl [Neutral Red] | 480-570 nm |
| O=S(=O)([O-])c1cc(S(=O)(=O)[O-])c2c(N=Nc3ccc(S(=O)(=O)[O-])c4ccccc34)c(O)ccc2c1.[Na+].[Na+].[Na+] [Brilliant Scarlet 4R] | 503 nm |
| O=S(=O)(O)c1cc(S(=O)(=O)O)c2c(/N=N/c3ccccc3)c(O)ccc2c1 [Orange G] | 450-510 nm |
| Nickel 5,10-bis-acrylate etioporphyrin I | 580 nm |
| CNc1ccc2nc3ccc(N)cc3[s+]c2c1.[Cl-] [Azure C] | 580-640 nm |
| CCN(Cc1cccc(S(=O)(=O)[O-])c1)c1ccc(C(=C2C=CC(=[N+](CC)Cc3cccc(S(=O)(=O)[O-])c3)C=C2)c2ccccc2S(=O)(=O)[O-])cc1.[Na+].[Na+] [Erioglaucine disodium salt] | 629 nm |
| CCN(Cc1cccc(S(=O)(=O)O)c1)c1ccc(C(=C2C=CC(=[N+](CC)Cc3cccc(S(=O)(=O)O)c3)C=C2)c2ccc(S(=O)(=O)O)cc2)cc1.[Na+].[Na+] [Light Green SF] | 590+ nm |
| O=C([O-])C1=NN(c2ccc(S(=O)(=O)[O-])cc2)C(=O)C1N=Nc1ccc(S(=O)(=O)[O-])cc1.[Na+].[Na+].[Na+] (stereo not drawn) [Tartrazine] | 400-460 nm |

| Compound | Spectral Absorption Ranges and Peaks |
| --- | --- |
| Taporfin Sodium | 664 nm |
| CN(C)c1ccc(C(=C2C=CC(=[N+](C)C)C=C2)c2c(O)c(S(=O)(=O)[O-])cc3cc(S(=O)(=O)[O-])ccc23)cc1.[Na+] [Lissamine green] | 633 nm |
| CN(C)c1ccc(C(=C2C=CC(=[N+](C)C)C=C2)c2ccc(N(C)C)cc2)cc1 [Crystal Violet] | 550-610 nm |
| Cc1cc2nc3c(=O)[nH]c(=O)nc-3n(C[C@H](O)[C@H](O)[C@H](O)COP(=O)([O-])O)c2cc1C.[Na+] [Riboflavin 5′-monophosphate sodium salt] | 441 nm |
| CCOC(=O)c1ccccc1-c1c2cc(Br)c(=O)c(Br)c-2oc2c(Br)c([O-])c(Br)cc12.[K+] [Ethyl Eosin] | 530-550 nm |
| CC(=O)Nc1ccc2nc3c4ccccc4c(=N)cc-3oc2c1.Cl [Darrow Red] | 450-550 nm |
| Phthalocyanine-4 | 670 nm |
| O=C([O-])c1c(Cl)c(Cl)c(Cl)c(Cl)c1-c1c2cc(Br)c(=O)c(Br)c-2oc2c(Br)c([O-])c(Br)cc12.[Na+].[Na+] [Phloxine B] | 520+ nm |
| Mono-N-Aspartyl Chlorin e6 | 664 nm |
| Basic Fuchsin | 520-570 nm |
| Cc1cc2nc3cc(C)c(N)cc3[n+](-c3ccccc3)c2cc1N.[Cl-] [Safranin O] | 470-550 nm |
| Cc1cc(-c2ccc(/N=N/c3c(S(=O)(=O)O)cc4cc(S(=O)(=O)O)cc(N)c4c3O)c(C)c2)ccc1/N=N/c1c(S(=O)(=O)O)cc2cc(S(=O)(=O)O)cc(N)c2c1O [Trypan Blue] | 500+ nm |
| CC(C)=CCC/C(C)=C/C=C/C(C)=C/C=C/C(C)=C/C=C/C=C(C)/C=C/C=C(C)/C=C/C=C(\C)CCC=C(C)C [Lycopene] | 530 nm |
| Sudan Red | 450-590 nm |
| Silicon phthalocyanine [Silicon phthalocyanine (Pc4)] | 675 nm |
| O=C([O-])c1c(Cl)c(Cl)c(Cl)c(Cl)c1-c1c2cc(I)c(=O)c(I)c-2oc2c(I)c([O-])c(I)cc12.[Na+].[Na+] [Rose bengal] | 548 nm |
| CC1=C(/C=C/C(C)=C/C=C/C(C)=C/C=C/C=C(C)/C=C/C=C(C)/C=C/C2=C(C)CCCC2(C)C)C(C)(C)CCC1 [Beta carotene] | 470 nm |
| Cc1ccccc1/N=N/c1ccc(/N=N/c2c(O)ccc3ccccc23)c(C)c1 [Sudan IV] | 470-580 nm |
| Verteporfin | 690 nm |
| O=C1/C(=C2\Nc3ccc(S(=O)(=O)[O-])cc3C2=O)Nc2ccc(S(=O)(=O)[O-])cc21.[Na+].[Na+] [Indigo Carmine] | 608 nm |
| C=Cc1c(C)c2cc3nc(c(CC(=O)N[C@@H](CC(=O)O)C(=O)O)c4[nH]c(cc5nc(cc1[nH]2)C(C)=C5CC)c(C)c4C(=O)O)[C@@H](CCC(=O)O)[C@@H]3C [Talaporfin (LS11, MACE, Npe6), Talaporfin] | 660 nm |
| O=S(=O)([O-])c1cc(S(=O)(=O)[O-])c2c(N=Nc3ccc(S(=O)(=O)[O-])c4ccccc34)c(O)ccc2c1.[Na+].[Na+].[Na+] [New Coccine] | 506 nm |
| CCOC(=O)C1=Cc2c3nc(cc4nc(cc5[n-]c(cc6[n-]c2c(C)c6CC)c(C)c5CC)C(C)=C4CC)[C@@H](C)[C@]13CC.[Cl-].[Cl-].[Sn] (racemic) [Tin etiopurpurin] | 660 nm |
| CN(C)c1ccc2nc3ccc(=[N+](C)C)cc-3sc2c1 [Methylene Blue] | 590+ nm |
| CN(C)c1ccc(C(=C2C=CC(=[N+](C)C)C=C2)c2ccc([N+](C)(C)C)cc2)cc1.[Cl-].[Cl-] [Methyl Green] | 560+ nm |
| O=C([O-])c1ccccc1-c1c2cc(Br)c(=O)c(Br)c-2oc2c(Br)c([O-])c(Br)cc12.[Na+].[Na+] [Eosin Y] | 490-530 nm |

Same assay, conditions: visible light absorption peaks named in text

| Compound | absorption peak [nm] |
| --- | --- |
| C=Cc1c(C)c2cc3nc(c(CC(=O)O)c4[nH]c(cc5nc(cc1[nH]2)C(C)=C5CC)c(C)c4C(=O)O)[C@@H](CCC(=O)O)[C@@H]3C [Chlorin e6] | 410 |
| Si(IV)-naphthocyanine | 773 |

Test system: methicillin-resistant Staphylococcus aureus (MRSA)
Details: with 632.8 nm light

| Compound | eradication of MRSA |
| --- | --- |
| Cc1cc2nc3ccc(N(C)C)cc3[s+]c2cc1N.[Cl-] [Toluidine Blue] | eradicate |
